This passage reports IC50 results from patent publication US20240025924A1, “HETEROCYCLE SUBSTITUTED KETONE DERIVATIVE, AND COMPOSITION AND MEDICINAL USE THEREOF” (SHANGHAI HAIYAN PHARMACEUTICAL TECHNOLOGY CO., LTD., priority 2021, published 2024).

The target of assay [1] is T1, SHP-2 enzyme (Homo sapiens, UniProt Q06124).
T1 construct: Homogeneous Full Length SHP-2 Assay Kit (BPS Bioscience #79330); purchased BPS Bioscience 79330
T1 sequence (Q06124 1-593): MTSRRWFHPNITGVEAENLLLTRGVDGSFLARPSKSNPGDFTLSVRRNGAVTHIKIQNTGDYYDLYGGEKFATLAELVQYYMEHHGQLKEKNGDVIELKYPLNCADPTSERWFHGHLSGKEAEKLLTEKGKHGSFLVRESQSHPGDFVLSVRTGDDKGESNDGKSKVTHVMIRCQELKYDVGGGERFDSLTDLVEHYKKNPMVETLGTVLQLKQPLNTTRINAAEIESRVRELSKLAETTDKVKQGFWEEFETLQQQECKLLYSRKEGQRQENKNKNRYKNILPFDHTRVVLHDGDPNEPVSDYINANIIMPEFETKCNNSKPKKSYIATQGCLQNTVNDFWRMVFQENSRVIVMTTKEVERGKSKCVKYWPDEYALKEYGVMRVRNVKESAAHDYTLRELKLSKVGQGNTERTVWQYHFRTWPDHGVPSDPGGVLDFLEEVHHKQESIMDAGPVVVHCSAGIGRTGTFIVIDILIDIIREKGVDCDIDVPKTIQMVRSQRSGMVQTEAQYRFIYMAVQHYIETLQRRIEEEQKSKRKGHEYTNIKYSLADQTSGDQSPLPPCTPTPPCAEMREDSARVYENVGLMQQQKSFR
In words: Phosphatase activity assay (Homogeneous Full Length SHP-2 Assay Kit, DiFMUP substrate). The assay is classed as biochemical. To be noted: full length SHP-2 activated with 0.5 μM SHP-2 activating Peptide; 1 hour co-incubation; DiFMUP 50 μM, 30 min. As for the experimental part: IC50 values were assayed using Homogeneous Full Length SHP-2 Assay Kit (BPS Bioscience #79330), which uses 6,8-difluoro-4-methylumbelliferone phosphate (DiFMUP) as the reaction substrate. SHP2 enzyme solution (diluted to 0.04 ng/μL with 1*buffer) was mixed with 0.5 μM SHP-2 activating Peptide in a 1*buffer solution containing 2.5 mM DTT to activate PTP. At the same time, DMSO (0.1% (V/V)) or the compounds (concentration: 0.5 nM to 1 μM) were added, mixed and co-incubated for 1 hour. DiFMUP (50 μM, total reaction system volume of 20 μL) was added, and the reaction was started. After 30 min of incubation, the fluorescence intensity of the reaction system (excitation wavelength: 350 nm, emission wavelength: 460 nm) was measured by Tecan Infinite M1000.

Assay [2] concerns MV-4-11 cell. In words: Cell proliferation assay (Cell Titer-Glo). Conditions: Homo sapiens, MV4-11, 96 h, inhibition of MV-4-11 cell proliferation; Cell Titer-Glo on day 4. In kind it is cell-based. As for the experimental part:
MV 411 cells (20000 cells/well) were inoculated and cultured in 96 (Corning #3916) well plates, and the medium was 80 μL/well (IMDM with 10% fetal bovine serum (FBS), Gibco #10099-141C). After 24 hours of incubation, 20 μL of the compounds of the present invention configured to different concentrations (DMSO final concentration of 0.1% (V/V)) were added. On day 4, 60 μL of Cell Titer-Glo (Promega #G7558) was added to each well and mixed at 80 rpm, 25° C., 15 min, and the fluorescence values were detected by Victor X5 (PE).

By IC50 is commonly meant the point on the concentration scale where inhibition reaches its midpoint. Turning to `Nc1nc(N2CCC3(CC2)Cc2ccc(Cl)cc2C3N)cnc1C(=O)N1CCCn2nccc21` (centres unmarked) [Compound 2], the 50% inhibitory concentration (IC50) is 4 nM in assay [1] and 24 nM in assay [2].
In the case of `Nc1nc(N2CCC3(CC2)Cc2ccccc2C3N)cnc1C(=O)N1CCCn2nccc21` (centres unmarked) [Compound 3], the IC50 in assay [1] stood at 13 nM; in assay [2] it was 54 nM.
In the same order, the values of `Nc1nc(N2CCC3(CC2)Cc2cc(F)ccc2C3N)cnc1C(=O)N1CCCn2nccc21` (centres unmarked) [Compound 4] are 1 nM and 78 nM.
Consider `COc1ccc2c(c1)C(N)C1(CCN(c3cnc(C(=O)N4CCCn5nccc54)c(N)n3)CC1)C2` (centres unmarked) [Compound 5], for which the IC50 in assay [1] came to 1 nM; in assay [2] it was 220 nM.
As for `Nc1nc(N2CCC3(CC2)Cc2ccccc2C3N)cnc1C(=O)N1CCOc2cccnc21` (centres unmarked) [Compound 6], the IC50 in assay [1] is 83 nM.
Regarding `Nc1nc(N2CCC3(CC2)Cc2ccccc2C3N)cnc1C(=O)N1CCc2ncccc21` (centres unmarked) [Compound 7], the IC50 was 6 nM in assay [1] and 95 nM in assay [2].
On the same counts, the results for `Nc1nc(N2CCC3(CC2)Cc2ccc(F)cc2C3N)cnc1C(=O)N1CCCn2nccc21` (centres unmarked) [Compound 8] are 5 nM and 111 nM.
In the case of `NC1c2ccccc2CC12CCN(c1cnc(C(=O)N3CCCn4nccc43)cn1)CC2` (centres unmarked) [Compound 9], the IC50 in assay [1] was determined as 59 nM.
As to `Nc1nc(N2CCC3(CC2)Cc2ccccc2C3N)cnc1C(=O)N1CCc2ncsc2C1` (centres unmarked) [Compound 10], the IC50 was determined as 4 nM in assay [1] and 44 nM in assay [2].
For `Nc1nc(N2CCC3(CC2)Cc2ccccc2C3N)cnc1C(=O)N1CCOc2ncccc21` (centres unmarked) [Compound 11], in assay [1], the IC50 came out at 24 nM.
Turning to `Nc1nc(N2CCC3(CC2)Cc2ccccc2C3N)cnc1C(=O)N1CCCc2cccnc21` (centres unmarked) [Compound 12], the IC50 in assay [1] came out at 49 nM.
On to `Nc1nc(N2CCC3(CC2)Cc2ccccc2C3N)cnc1C(=O)N1CCCc2ncccc21` (centres unmarked) [Compound 13], for which the IC50 in assay [1] was determined as 11 nM; in assay [2] it was 82 nM.
Take `Nc1nc(N2CCC3(CC2)Cc2ccccc2C3N)cnc1C(=O)N1CCCc2c(Cl)cccc21` (centres unmarked) [Compound 14]: the IC50 in assay [1] was 22 nM.
Turning to `N#Cc1cccc2c1CCCN2C(=O)c1ncc(N2CCC3(CC2)Cc2ccccc2C3N)nc1N` (centres unmarked) [Compound 15], the half-inhibitory concentration (IC50) in assay [1] turned out to be 13 nM; in assay [2], 170 nM.
With `Nc1nc(N2CCC3(CC2)Cc2ccc(F)cc2C3N)cnc1C(=O)N1CCc2ncccc21` (centres unmarked) [Compound 16], the IC50 stood at 5 nM in assay [1] and 40 nM in assay [2].
In the same order, the values of `Nc1nc(N2CCC3(CC2)Cc2ccc(F)cc2C3N)cnc1C(=O)N1CCc2ncsc2C1` (centres unmarked) [Compound 17] are 4 nM and 17 nM.
On to `Nc1nc(N2CCC3(CC2)Cc2ccccc2C3N)cnc1C(=O)N1CCc2scnc2C1` (centres unmarked) [Compound 19], for which the figures for the IC50 in assay [1] and in assay [2] were 5 nM and 142 nM, respectively.
Regarding `Nc1nc(N2CCC3(CC2)Cc2ccccc2C3N)cnc1C(=O)N1Cc2cccnc2C1` (centres unmarked) [Compound 20], the IC50 in assay [1] turned out to be 17 nM.
On to `Nc1nc(N2CCC3(CC2)Cc2cc(F)ccc2C3N)cnc1C(=O)N1CCc2ncccc21` (centres unmarked) [Compound 21], for which the 50% inhibitory concentration (IC50) in assay [1] stood at 3 nM; in assay [2] it was 107 nM.
As for `Nc1nc(N2CCC3(CC2)Cc2ccc(C(F)(F)F)cc2C3N)cnc1C(=O)N1CCCn2nccc21` (centres unmarked) [Compound 22], the results for the half-maximal inhibitory concentration (IC50) in assay [1] and in assay [2] were 6 nM and 78 nM, respectively.
`NC(=O)c1nc(C(=O)N2CCCn3nccc32)cnc1N1CCC2(CC1)Cc1ccccc1C2N` (centres unmarked) [Compound 23]: the IC50 in assay [1] amounted to 22 nM.
As to `Nc1nc(N2CCC3(CC2)Cc2sc(Cl)nc2C3N)cnc1C(=O)N1CCCn2nccc21` (centres unmarked) [Compound 25], the half-inhibitory concentration (IC50) in assay [1] stood at 15 nM.
For `Cc1nc(C(=O)N2CCCn3nccc32)c(N)nc1N1CCC2(CC1)Cc1ccc(F)cc1C2N` (centres unmarked) [Compound 27], the IC50 in assay [1] turned out to be 5 nM; in assay [2], 98 nM.
As for `Nc1nc(N2CCC3(CC2)Cc2ccccc2C3N)c(Cl)nc1C(=O)N1CCCn2nccc21` (centres unmarked) [Compound 28], the IC50 in assay [1] was found to be 4 nM; in assay [2], 44 nM.
On to `Nc1nc(N2CCC3(CC2)Cc2ccccc2C3N)c(Br)nc1C(=O)N1CCCn2ncc(Br)c21` (centres unmarked) [Compound 29], for which the IC50 in assay [1] was 43 nM.
Turning to `Nc1nc(N2CCC3(CC2)Cc2ccccc2C3N)c(Cl)nc1C(=O)N1CCCn2ncc(Cl)c21` (centres unmarked) [Compound 31], the IC50 in assay [1] turned out to be 47 nM.
Regarding `Cc1cc2n(n1)CCCN2C(=O)c1ncc(N2CCC3(CC2)Cc2ccccc2C3N)nc1N` (centres unmarked) [Compound 32], the half-maximal inhibitory concentration (IC50) in assay [1] came to 28 nM.
In the case of `Cn1cc(-c2ccc3c(n2)CCCN3C(=O)c2ncc(N3CCC4(CC3)Cc3ccccc3C4N)nc2N)cn1` (centres unmarked) [Compound 33], the figures for the IC50 in assay [1] and in assay [2] were 29 nM and 285 nM, respectively.
For `N#Cc1ccc2c(c1)C(N)C1(CCN(c3cnc(C(=O)N4CCCn5nccc54)c(N)n3)CC1)C2` (centres unmarked) [Compound 34], the figures for the IC50 in assay [1] and in assay [2] were 6 nM and 56 nM, respectively.
For the compound `CC1(C)CN(C(=O)c2ncc(N3CCC4(CC3)Cc3ccccc3C4N)nc2N)c2cccnc21` (centres unmarked) [Compound 36], the IC50 in assay [1] is 18 nM.
Still for that read-out and setting: the value for `Nc1nc(N2CCC3(CC2)Cc2ncccc2C3N)cnc1C(=O)N1CCCn2nccc21` (centres unmarked) [Compound 39] was 36 nM; that for `Cc1nc(N2CCC3(CC2)Cc2ccccc2C3N)c(CO)nc1C(=O)N1CCCn2nccc21` (centres unmarked) [Compound 43] was 60 nM; that for `Cc1nc(N2CCC3(CC2)Cc2ccccc2C3N)c(C(N)=O)nc1C(=O)N1CCCn2nccc21` (centres unmarked) [Compound 44] was 25 nM.
With `Nc1nc(N2CCC3(CC2)Cc2cc(Cl)ccc2C3N)cnc1C(=O)N1CCCn2nccc21` (centres unmarked) [Compound 48], the 50% inhibitory concentration (IC50) in assay [1] was determined as 4 nM.
The same measure, in the same setting: for `Nc1nc(N2CCC3(CC2)Cc2ccccc2C3N)cnc1C(=O)N1CCc2ncncc21` (centres unmarked) [Compound 51] the value was 35 nM; for `Nc1nc(N2CCC3(CC2)Cc2cc(C(F)(F)F)ccc2C3N)cnc1C(=O)N1CCCn2nccc21` (centres unmarked) [Compound 55], 50 nM; for `CC(C)(O)c1ccc2c(c1)C(N)C1(CCN(c3cnc(C(=O)N4CCCn5nccc54)c(N)n3)CC1)C2` (centres unmarked) [Compound 56], 21 nM.
Same read-out and setting: for `CC1CN(C(=O)c2ncc(N3CCC4(CC3)Cc3ccccc3C4N)nc2N)c2cccnc21` (centres unmarked) [Compound 57] the value was 6 nM.
Take `CC1(C)Cc2nc(N)sc2CN1C(=O)c1ncc(N2CCC3(CC2)Cc2ccccc2C3N)nc1N` (centres unmarked) [Compound 69]: in assay [2], the midpoint of inhibition, the IC50, lay at 49 nM.
For the compound `[2H]C1([2H])CN(C(=O)c2ncc(N3CCC4(CC3)Cc3ccc(C)cc3C4N)nc2N)Cc2sc(N)nc21` (centres unmarked) [Compound 71], in assay [2], the IC50 was 16 nM.
For the compound `Cc1ccc2c(c1)C(N)C1(CCN(c3cnc(C(=O)N4Cc5sc(N)nc5C(F)(F)C4)c(N)n3)CC1)C2` (centres unmarked) [Compound 72], in assay [2], half-maximal inhibition (IC50) required 12 nM.
Consider `COc1ccc2c(c1)C(N)C1(CCN(c3cnc(C(=O)N4Cc5sc(N)nc5C(F)(F)C4)c(N)n3)CC1)C2` (centres unmarked) [Compound 73], for which the IC50 in assay [2] stood at 19 nM.
With `Nc1nc2c(s1)CN(C(=O)c1cnc(N3CCC4(CC3)Cc3ccccc3C4N)c(CO)n1)CC2(F)F` (centres unmarked) [Compound 74], the IC50 in assay [2] is 6 nM.
`Nc1ccc2c(n1)CCN2C(=O)c1ncc(N2CCC3(CC2)Cc2cccc(F)c2C3N)nc1N` (centres unmarked) [Compound 90]: the IC50 in assay [1] worked out at 24 nM.
On to `Nc1ccc2c(n1)CCN2C(=O)c1ncc(N2CCC3(CC2)Cc2ccncc2C3N)nc1N` (centres unmarked) [Compound 97], for which the IC50 in assay [1] was determined as 10 nM.
Regarding `Nc1ccc2c(n1)CCCN2C(=O)c1ncc(N2CCC3(CC2)Cc2ccccc2C3N)nc1N` (centres unmarked) [Compound 98], the half-inhibitory concentration (IC50) in assay [1] was 26 nM.
Turning to `Cc1nc(N2CCC3(CC2)Cc2ccccc2C3N)c(CO)nc1C(=O)N1CCc2nc(N)ccc21` (centres unmarked) [Compound 111], in assay [1], the IC50 turned out to be 15 nM.
Same read-out and setting: the value for `CC1(C)Cc2nc(N)sc2CN1C(=O)c1ncc(N2CCC3(CC2)Cc2ccccc2C3N)nc1N` (centres unmarked) [Compound 121] was 9 nM; that for `[2H]C1([2H])CN(C(=O)c2ncc(N3CCC4(CC3)Cc3ccc(C)cc3C4N)nc2N)Cc2sc(N)nc21` (centres unmarked) [Compound 123] was 5 nM.
On to `Cc1ccc2c(c1)C(N)C1(CCN(c3cnc(C(=O)N4Cc5sc(N)nc5C(F)(F)C4)c(N)n3)CC1)C2` (centres unmarked) [Compound 124], for which the 50% inhibitory concentration (IC50) in assay [1] worked out at 9 nM.
